In US11726087B2, “Methods, compositions, and kits for detection of aspergillosis” (priority 2013, dated 2023):
Entries after “also recorded” stand apart in the source; their conditions may differ. Positions of bridges follow the written chain, without caps; N, C: chain ends. Non-standard residues stand in square brackets, D forms with d. Residues, ends and D or L forms follow the SMILES beside them. No end group written: not given here. *: point of attachment. 5FAM = O=C1OC2(c3ccc(O)cc3Oc3cc(O)ccc32)c2ccc(C(=O)*)cc21; DABCYL = 4-(dimethylaminoazo)benzene-4-carboxy; Sta = CC(C)C[C@H](N)[C@@H](O)CC(=O)O; Isovaleryl = CC(C)CC(=O)*

Assays:
Assay type in all cases: biochemical, A. fumigatus
native Asp f2 [1] = molecular target: T1, native Asp f2 (Aspergillus fumigatus, UniProt P79017); conditions: for effect of protease inhibitors on proteolytic activity of native Asp f2: 50 μM inhibitor, FluHSA2 substrate
T1 construct: beads were incubated with native or recombinant Asp f2; endogenous in cells; host or cells: Aspergillus fumigatus (preparation of the native protein not described for this assay)
T1 sequence (P79017 32-310): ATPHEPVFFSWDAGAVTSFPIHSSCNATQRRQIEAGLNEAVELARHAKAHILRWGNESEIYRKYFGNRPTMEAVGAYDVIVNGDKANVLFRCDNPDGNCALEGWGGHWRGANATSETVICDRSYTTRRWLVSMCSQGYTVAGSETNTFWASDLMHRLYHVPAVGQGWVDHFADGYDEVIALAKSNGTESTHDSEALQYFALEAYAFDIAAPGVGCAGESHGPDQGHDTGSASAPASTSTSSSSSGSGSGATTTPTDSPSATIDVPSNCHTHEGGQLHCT
Procedure: (§1) A novel bead-based assay was developed for detecting Asp f2 proteolytic activity. […] Cyanogen bromide (CNBr)-activated sepharose beads were swelled in ice-cold HCl (1 mM). Beads (1.0 g) were incubated with 3.0 mg of 5D7A1 in Coupling Buffer (NaHCO3, 0.1 M and NaCl, 0.5 M, pH 8.3-8.5) and rotated for two hours at 22° C. or for 16 hours at 4° C. Beads were blocked with 0.1 M ethanolamine, pH 8.0, then washed with buffers of alternating pH (first with Coupling Buffer, pH 8.5, then with a low pH buffer (sodium acetate, 0.1 M, NaCl, 0.5 M, pH 4.0)). These dual washes were repeated four times. Lastly, beads were resuspended in ammonium bicarbonate (100 mM), lyophilized and stored at 4° C.
(§2) FluHSA2 comprises the peptide of SEQ ID NO:5 conjugated to 5-Fam at the alpha-amino group of the threonine at the N-terminus of the peptide and to DABCYL at the epsilon amino group of the lysine side chain at the C-terminus of the peptide. Upon excitation, the DABCYL suppresses the fluorescence emission of the 5-Fam labeled peptides when the peptides are not cleaved and the fluorescent label and DABCYL remain close together. However, when the peptide is cleaved by Asp f2, the fluorescent label and DABCYL are separated and the fluorescent label emits light energy upon excitation. For each replicate (including negative controls), 100 μL of the antibody coupled bead suspension was transferred into 0.5 mL reaction buffer (FluHSA2 (FIG. 4-5; SEQ ID NO: 5), […] sodium phosphate, 25 mM, NaCl, 100 mM, pH 7.2. Tubes were incubated in the dark for two hours at 37° C. or for 16 hours at 22° C. on a rotary shaker at 250 rpm. Fluorescence was measured at Excitation (Ex) 485 nm/Emission (Em) 535 nm in a black 96-well micro titer plate.
(§3) Diethylpyrocarbonate (DEPC) derivatization of histidines results in the chemical modification of histidines in proteins and is used to study the importance of histidyl residues in enzymes. Using the materials and methods described in Example 1, anti-Asp f2 (5D7A1)-bound beads were incubated with native or recombinant Asp f2 in the presence or absence of DEPC (30 μM) and incubated for one hour at 22° C. prior to reaction with FluHSA2. Samples were then incubated with 10 μM of FluHSA2 for 16 hours at 22° C. and fluorescence was measured as described above. Cleavage of FluHSA2 was detected in the presence or absence of DEPC to test the proteolytic activity of native and recombinant Asp f2.
Anti-Asp f2 (5D7A1)-bound beads were incubated with native or recombinant Asp f2 in the presence or absence of 0.5 mM zinc chloride or 50 μM of various inhibitors. Samples were incubated with FluHSA2 and fluorescence was measured as described above. […] Various Asp f2 histidine residues, including those located in the ^186HRLYH motif, were mutated to alanine (FIG. 12; H186A and H190A are located in the HRLYH motif), and mutant or wild-type Asp f2 was incubated with anti-Asp f2 (5D7A1)-bound beads as described above, followed by incubation with FluHSA2.

recombinant Asp f2 = molecular target: T2, recombinant Asp f2 (Aspergillus fumigatus, UniProt P79017); conditions: for effect of protease inhibitors on proteolytic activity of recombinant Asp f2: 50 μM inhibitor, FluHSA2 substrate
T2 construct: region fused to Asp f2 residues 32-310 (codon optimized for expression in E. coli); Trx-SMT3 N-terminal linker (thioredoxin, His6 tags, SMT3) (N, cleaved yes); made in house; host or cells: Escherichia coli
T2 sequence (P79017 32-310): as above
Procedure: as §1, §2
The fusion protein comprised an N-terminal linker (Trx-SMT3 N-terminal linker) region fused to Asp f2 residues 32-310 (codon optimized for expression in E. coli; FIG. 14) via a Ubiquitin-like-specific protease 1 (ULP1) cleavage site located between SMT3 and Asp f2. The Trx-SMT3 N-terminal linker contained the following from N- to C-terminus: thioredoxin (Trx)-glycine-serine-linker-His6-tag-linkers-another His6-tag-SMT3. Trx was added to improve solubility of the construct and a yeast SUMO (Smt3) was added to help enhance expression and promote solubility of Asp f2. Following purification using a His6-tag specific nickel-NTA column, Asp f2 was activated by cleaving the Trx-SMT3 N-terminal linker off using UPL1.
as §3
Anti-Asp f2 (5D7A1)-bound beads were incubated with native or recombinant Asp f2 in the presence or absence of 0.5 mM zinc chloride or 50 μM of various inhibitors. Samples were incubated with FluHSA2 and fluorescence was measured as described above.

native Asp f2 [2] = molecular target: T1, native Asp f2; assay: Cleavage of fluorogenic substrates by bead-bound native Asp f2
Procedure: Cleavage specificity of the novel FluHSA peptide was tested using Asp f2 and another Aspergillus protein, Asp f3. CNBr-activated sepharose beads were prepared as described in Example 1 and incubated with either the anti-Asp f2 monoclonal antibody 5D7A1 or an anti-Asp f3 rabbit polyclonal antibody. Anti-Asp f2-immobilized beads were incubated with native Asp f2 and anti-Asp f3-immobilized beads were incubated with native Asp f3. Samples were incubated with FluHSA2 (10 μM) for 16 hours at 22° C. Fluorescence was measured at Ex 485 nm/Em 535 nm in a black 96-well micro titer plate as described above.
The cleavage products of FluHSA2 after reaction with native Asp f2 were investigated by mass spectrometric analysis (MALDI spectra) (FIG. 5). Cleavage by Asp f2 occurred in the C-terminal linear tail section of the peptide resulting in at least 5 cleavage products (FIG. 5).
Peptides other than FluHSA2 were tested for cleavage by Asp f2.

[3] = DEPC 30 μM, one hour at 22° C. before FluHSA2 10 μM, 16 hours at 22° C.

Compound	effect of protease inhibitors on proteolytic activity of native Asp f2 (native Asp f2 [1])	effect of protease inhibitors on proteolytic activity of recombinant Asp f2 (recombinant Asp f2)	further results
NC(=O)CI [IAA, iodoacetamide]	did not inhibit	did not inhibit	
O=C(O)CN(CCN(CC(=O)O)CC(=O)O)CC(=O)O [EDTA, ethylenediaminetetraacetic acid]	suppressed	suppressed	
soybean trypsin inhibitor [SBTI]	did not inhibit	did not inhibit	
c1cnc2c(c1)ccc1cccnc12 [1-10-phenanthroline]	suppressed	suppressed	
collagen			degradation of fluorogenic protein substrate by native Asp f2 (native Asp f2 [2]; 15 μg/mL, Asp f2 enriched on 5D7A1 beads): capable of degrading
[5-Fam]-TKCATESAVNRRPCFSALK-[DABCYL] (5FAM-TKCATESAVNRRPCFSALK(DABCYL); disulfide 3-14 (inferred)) [FluHSA2]			number of cleavage products after reaction with native Asp f2 (MALDI) (native Asp f2 [2]): at least 5; specificity of cleavage by Asp f2 compared with Asp f3 (native Asp f2 [2]; FluHSA2 10 μM, 16 hours at 22° C.): high specificity for cleavage by Asp f2; number of cleavage sites on reaction with native Asp f2 (MALDI) (native Asp f2 [2]; sites near the C-terminus): four
aprotinin	did not inhibit	did not inhibit	
O=S(=O)(F)Cc1ccccc1 [PMSF, phenylmethanesulfonylfluoride]	did not inhibit	did not inhibit	
CCOC(=O)OC(=O)OCC [DEPC, Diethylpyrocarbonate]			proteolytic activity of native Asp f2 (cleavage of FluHSA2) in the presence of DEPC (native Asp f2 [1]; [3]): inhibited; also recorded: inactive in the presence of DEPC; proteolytic activity of recombinant Asp f2 (cleavage of FluHSA2) in the presence of DEPC (recombinant Asp f2; [3]): inhibited; also recorded: inactive in the presence of DEPC
CC(C)CC(=O)N[C@H](C(=O)N[C@H](C(=O)N[C@@H](CC(C)C)[C@@H](O)CC(=O)N[C@@H](C)C(=O)N[C@@H](CC(C)C)[C@@H](O)CC(=O)O)C(C)C)C(C)C [pepstatin A] (Isovaleryl-VV[Sta]A[Sta]-OH)	did not inhibit	did not inhibit	
c1ccc(CN(CCN(Cc2ccccn2)Cc2ccccn2)Cc2ccccn2)nc1 [TPEN, N,N,N′,N′-tetrakis (2-pyridylmethyl) ethylenediamine]	suppressed	suppressed	
